Key:
[1] = system: IHH-4 (Thyroid Gland Carcinoma); assay: combination Emax (second highest fraction inhibited in the dose matrix, 72 h); higher = more inhibition; extreme values may be limits of the assay
Summary of the method: (§1)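 Cell lines grown in DMEM/F12 or RPMI with 10% FBS were plated in 1536-well plates and held 24 hours at 37°C, 5% CO2 before 72 hours of exposure to two-drug dose matrices, with DMSO typically at 0.2%. CellTiter-Glo 2.0 luminescence gave viability, which was converted to inhibition. Vehicle wells were set to 0 and blank wells to 1. Combination Emax is the second-highest inhibition in the matrix, and Bliss excess is the observed combination effect minus the expected EA + EB − EA·EB, where EA and EB are the single-agent effects.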

[2] = system: IGR-1 (Melanoma); assay: as above
Summary of the method: as §1

[3] = system: NCI-H211 (Small Cell Lung Carcinoma); assay: as above
Summary of the method: as §1

[4] = system: NCI-H211 (Small Cell Lung Carcinoma); assay: Bliss excess, mean over the matrix (fraction); higher = more synergy
Summary of the method: as §1
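Throughout, for Bliss excess, mean over the matrix: after 72 h of two-drug dosing.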

Compound	combination Emax [1]	combination Emax [2]	combination Emax [3]	Bliss excess [4]
NC1(C(=O)N[C@@H](CCO)c2ccc(Cl)cc2)CCN(c2ncnc3[nH]ccc23)CC1 [Capivasertib] + CCN(CCO)CCCOc1ccc2c(Nc3cc(CC(=O)Nc4cccc(F)c4)[nH]n3)ncnc2c1 [AZD2811] (first compound max 10 µM, 7x7, partner max 1 µM)	0.618	0.465	0.944	-0.0107
COc1nnc2ccc(N3CCC(c4ccc(OCCN5CCN(C)C(=O)[C@H]5C)cc4)CC3)nn12 [AZD5153] + C=CCn1c(=O)c2cnc(Nc3ccc(N4CCN(C)CC4)cc3)nc2n1-c1cccc(C(C)(C)O)n1 [AZD1775] (first compound max 1 µM, partner max 1 µM)	0.662	0.623	0.993	-0.0008
Cn1cnc2c(F)c(Nc3ccc(Br)cc3Cl)c(C(=O)NOCCO)cc21 [Selumetinib] + C=CCn1c(=O)c2cnc(Nc3ccc(N4CCN(C)CC4)cc3)nc2n1-c1cccc(C(C)(C)O)n1 [AZD1775] (first compound max 10 µM, partner max 1 µM)	0.742	0.578	0.831	0.0248
COc1nnc2ccc(N3CCC(c4ccc(OCCN5CCN(C)C(=O)[C@H]5C)cc4)CC3)nn12 [AZD5153] + C[C@@H]1COCCN1C2=NC(=NC(=C2)C3(CC3)[S@](=N)(=O)C)C4=C5C=CNC5=NC=C4 [AZD6738] (first compound max 1 µM, 7x7, partner max 10 µM)	0.772	0.728	1	-0.008
Cn1cnc2c(F)c(Nc3ccc(Br)cc3Cl)c(C(=O)NOCCO)cc21 [Selumetinib] + C[C@@H]1COCCN1C2=NC(=NC(=C2)C3(CC3)[S@](=N)(=O)C)C4=C5C=CNC5=NC=C4 [AZD6738] (first compound max 10 µM, 7x7, partner max 10 µM)	0.646	0.707	0.606	-0.0285
NC1(C(=O)N[C@@H](CCO)c2ccc(Cl)cc2)CCN(c2ncnc3[nH]ccc23)CC1 [Capivasertib] + CC(C)n1c(=O)n(C)c2cnc3cc(F)c(-c4ccc(OCCCN5CCCCC5)nc4)cc3c21 [AZD1390] (first compound max 10 µM, 7x7, partner max 0.3 µM)	0.203	0.334	0.488	-0.0294
COc1cc2ncnc(Nc3ccc(F)c(Cl)c3)c2cc1OCCCN1CCOCC1 [Gefitinib] + CC(C)n1c(=O)n(C)c2cnc3cc(F)c(-c4ccc(OCCCN5CCCCC5)nc4)cc3c21 [AZD1390] (first compound max 10 µM, 7x7, partner max 0.3 µM)	0.0356	0.635	0.227	-0.053
Cc1nc(Nc2ncc(C(=O)Nc3c(C)cccc3Cl)s2)cc(N2CCN(CCO)CC2)n1 [Dasatinib] + CC(=O)Nc1cccc(-n2c(=O)n(C3CC3)c(=O)c3c(Nc4ccc(I)cc4F)n(C)c(=O)c(C)c32)c1 [Trametinib] (first compound max 2 µM, 7x7, partner max 1 µM)	0.896	0.351	0.456	0.0556
C[C@@H](c1ccc2nccn2c1)n1nnc2ncc(-c3cnn(C)c3)nc21 [Savolitinib] + CC1(C)CCC(CN2CCN(c3ccc(C(=O)NS(=O)(=O)c4ccc(NCC5CCOCC5)c([N+](=O)[O-])c4)c(Oc4cnc5[nH]ccc5c4)c3)CC2)=C(c2ccc(Cl)cc2)C1 [Venetoclax] (first compound max 1 µM, 7x7, partner max 1 µM)	0.0656	0.114	0.744	0.0317
NC1(C(=O)N[C@@H](CCO)c2ccc(Cl)cc2)CCN(c2ncnc3[nH]ccc23)CC1 [Capivasertib] + CC(=O)c1c(C)c2cnc(Nc3ccc(N4CCNCC4)cn3)nc2n(C2CCCC2)c1=O [Palbociclib] (first compound max 10 µM, 7x7, partner max 10 µM)	0.618	0.831	0.59	0.0926
NC1(C(=O)N[C@@H](CCO)c2ccc(Cl)cc2)CCN(c2ncnc3[nH]ccc23)CC1 [Capivasertib] + COc1nnc2ccc(N3CCC(c4ccc(OCCN5CCN(C)C(=O)[C@H]5C)cc4)CC3)nn12 [AZD5153] (first compound max 10 µM, 7x7, partner max 1 µM)	0.636	0.406	1	-0.0113
COc1nnc2ccc(N3CCC(c4ccc(OCCN5CCN(C)C(=O)[C@H]5C)cc4)CC3)nn12 [AZD5153] + Cn1cnc2c(F)c(Nc3ccc(Br)cc3Cl)c(C(=O)NOCCO)cc21 [Selumetinib] (first compound max 1 µM, 7x7, partner max 10 µM)	0.662	0.938	1	0.0477
NC1(C(=O)N[C@@H](CCO)c2ccc(Cl)cc2)CCN(c2ncnc3[nH]ccc23)CC1 [Capivasertib] + Cn1cnc2c(F)c(Nc3ccc(Br)cc3Cl)c(C(=O)NOCCO)cc21 [Selumetinib] (first compound max 10 µM, 7x7, partner max 10 µM)	0.607	0.915	0.568	0.119
C[C@@H](c1ccc2nccn2c1)n1nnc2ncc(-c3cnn(C)c3)nc21 [Savolitinib] + Cc1c2c(nn1C)CSCc1cc(n(C)n1)CSc1cc(c3ccccc3c1)OCCCc1c(C(=O)O)n(C)c3c-2c(Cl)ccc13 [AZD5991] (first compound max 1 µM, 7x7, partner max 1 µM)	0.0909	0.223	0.859	0.033
CC(=O)c1c(C)c2cnc(Nc3ccc(N4CCNCC4)cn3)nc2n(C2CCCC2)c1=O [Palbociclib] + CC1(C)CCC(CN2CCN(c3ccc(C(=O)NS(=O)(=O)c4ccc(NCC5CCOCC5)c([N+](=O)[O-])c4)c(Oc4cnc5[nH]ccc5c4)c3)CC2)=C(c2ccc(Cl)cc2)C1 [Venetoclax] (first compound max 10 µM, 7x7, partner max 1 µM)	0.393	0.764	0.965	0.0694
CS(=O)(=O)CCNCc1ccc(-c2ccc3ncnc(Nc4ccc(OCc5cccc(F)c5)c(Cl)c4)c3c2)o1 [Lapatinib] + C[C@@H](Oc1cc(-c2cnn(C3CCNCC3)c2)cnc1N)c1c(Cl)ccc(F)c1Cl [Crizotinib] (first compound max 10 µM, 7x7, partner max 10 µM)	0.907	0.987	0.948	-0.0329
Cn1cnc2c(F)c(Nc3ccc(Br)cc3Cl)c(C(=O)NOCCO)cc21 [Selumetinib] + CC(C)n1c(=O)n(C)c2cnc3cc(F)c(-c4ccc(OCCCN5CCCCC5)nc4)cc3c21 [AZD1390] (first compound max 10 µM, 7x7, partner max 0.3 µM)	0.436	0.296	0.239	-0.0015
NC1(C(=O)N[C@@H](CCO)c2ccc(Cl)cc2)CCN(c2ncnc3[nH]ccc23)CC1 [Capivasertib] + C[C@@H]1COCCN1C2=NC(=NC(=C2)C3(CC3)[S@](=N)(=O)C)C4=C5C=CNC5=NC=C4 [AZD6738] (first compound max 10 µM, 7x7, partner max 10 µM)	0.859	0.713	0.665	0.0232
CC1(C)CCC(CN2CCN(c3ccc(C(=O)NS(=O)(=O)c4ccc(NCC5CCOCC5)c([N+](=O)[O-])c4)c(Oc4cnc5[nH]ccc5c4)c3)CC2)=C(c2ccc(Cl)cc2)C1 [Venetoclax] + C1CN(CCC1(C(=O)N[C@@H](CCO)C2=CC=C(C=C2)Cl)N)C3=NC=NC4=C3C=CN4 [Capivasertib] (first compound max 1 µM, 7x7, partner max 3 µM)	0.248	0.193	–	–
CC1(C)CCC(CN2CCN(c3ccc(C(=O)NS(=O)(=O)c4ccc(NCC5CCOCC5)c([N+](=O)[O-])c4)c(Oc4cnc5[nH]ccc5c4)c3)CC2)=C(c2ccc(Cl)cc2)C1 [Venetoclax] + CCN(CCO)CCCOc1ccc2c(Nc3cc(CC(=O)Nc4cccc(F)c4)[nH]n3)ncnc2c1 [AZD2811] (first compound max 1 µM, 7x7, partner max 1 µM)	0.389	0.349	–	–
Cc1c2c(nn1C)CSCc1cc(n(C)n1)CSc1cc(c3ccccc3c1)OCCCc1c(C(=O)O)n(C)c3c-2c(Cl)ccc13 [AZD5991] + Cc1cc2ncnn2cc1Nc1ncc2c(n1)n(C1CCOCC1)c(=O)n2C [AZD7648] (first compound max 1 µM, 7x7, partner max 10 µM)	0.35	0.237	–	–
CN(CCO)CC[C@H](CSc1ccccc1)Nc1ccc(S(=O)(=O)NC(=O)c2ccc(N3CCC([C@@H](O)c4ccccc4-c4ccc(Cl)cc4)CC3)cc2)cc1S(=O)(=O)C(F)(F)F [AZD4320] + C1CN(CCC1(C(=O)N[C@@H](CCO)C2=CC=C(C=C2)Cl)N)C3=NC=NC4=C3C=CN4 [Capivasertib] (first compound max 1 µM, 7x7, partner max 3 µM)	0.171	0.256	–	–
CN(CCO)CC[C@H](CSc1ccccc1)Nc1ccc(S(=O)(=O)NC(=O)c2ccc(N3CCC([C@@H](O)c4ccccc4-c4ccc(Cl)cc4)CC3)cc2)cc1S(=O)(=O)C(F)(F)F [AZD4320] + C=CCn1c(=O)c2cnc(Nc3ccc(N4CCN(C)CC4)cc3)nc2n1-c1cccc(C(C)(C)O)n1 [AZD1775] (first compound max 1 µM, partner max 1 µM)	0.694	0.934	–	–
CN(CCO)CC[C@H](CSc1ccccc1)Nc1ccc(S(=O)(=O)NC(=O)c2ccc(N3CCC([C@@H](O)c4ccccc4-c4ccc(Cl)cc4)CC3)cc2)cc1S(=O)(=O)C(F)(F)F [AZD4320] + C[C@@H]1COCCN1C2=NC(=NC(=C2)C3(CC3)[S@](=N)(=O)C)C4=C5C=CNC5=NC=C4 [AZD6738] (first compound max 1 µM, 7x7, partner max 10 µM)	0.769	0.969	–	–
CN(CCO)CC[C@H](CSc1ccccc1)Nc1ccc(S(=O)(=O)NC(=O)c2ccc(N3CCC([C@@H](O)c4ccccc4-c4ccc(Cl)cc4)CC3)cc2)cc1S(=O)(=O)C(F)(F)F [AZD4320] + CN(C)CCCOc1ccc(-c2ccc3ncc4c(c3c2)n(C2CCOCC2)c(=O)n4C)cn1 [AZD0156] (first compound max 1 µM, 7x7, partner max 1 µM)	0.224	0.342	–	–
